≈ marks a conversion by molar mass, not a printed value.
Tested on: Mycobacterium tuberculosis
Assay: Antimycobacterial activity against quinolone-resistant multidrug-resistant Mycobacterium tuberculosis after 21 days by agar dilution method
Type: functional
Settings: 504 h

SMILES	MIC [µg/mL]	MIC50 [µg/mL]	MIC90 [µg/mL]
COc1c(N2CC3(CC3)[C@](C)(N)C2)c(F)cc2c(=O)c(C(=O)O)cn([C@@H]3C[C@@H]3F)c12	0.125 (≈ 0.298 µM)	0.125 (≈ 0.298 µM)	0.5 (≈ 1.19 µM)
COc1c(N2CCNC(C)C2)c(F)cc2c(=O)c(C(=O)O)cn(C3CC3)c12 (stereo unspecified) [GATIFLOXACIN]	–	1 (≈ 2.66 µM)	2 (≈ 5.33 µM)
C[C@H]1COc2c(N3CCN(C)CC3)c(F)cc3c(=O)c(C(=O)O)cn1c23.C[C@H]1COc2c(N3CCN(C)CC3)c(F)cc3c(=O)c(C(=O)O)cn1c23.O [LEVOFLOXACIN]	–	8	16
COc1c(N2C[C@@H]3CCCN[C@@H]3C2)c(F)cc2c(=O)c(C(=O)O)cn(C3CC3)c12 [MOXIFLOXACIN]	–	2 (≈ 4.98 µM)	4 (≈ 9.96 µM)
CO[C@H]1/C=C/O[C@@]2(C)Oc3c(C)c(O)c4c(O)c(c(/C=N/N5CCN(C)CC5)c(O)c4c3C2=O)NC(=O)/C(C)=C\C=C\[C@H](C)[C@H](O)[C@@H](C)[C@@H](O)[C@@H](C)[C@H](OC(C)=O)[C@@H]1C [RIFAMPIN]	–	128 (≈ 156 µM)	> 128
